Drawing on patent US9637472B2, “Substituted 6,5-fused bicyclic heteroaryl compounds” (Epizyme, Inc., priority 2011, dated 2017), this text covers IC50 for 6 molecules.

Some results are limits rather than exact numbers.

The target of the test is EZH2 (Homo sapiens (Human), UniProt Q15910). The experiment in a line: PRC2 enzyme assay on peptide substrates. The class given is biochemical. The settings on record: PRC2 enzyme assays on peptide substrates; 4 nM enzyme, 30 min preincubation at 25° C.; read-out: EZH2 IC50.
EZH2, sequence (Q15910 other isoform, or with tags, fused parts or gaps): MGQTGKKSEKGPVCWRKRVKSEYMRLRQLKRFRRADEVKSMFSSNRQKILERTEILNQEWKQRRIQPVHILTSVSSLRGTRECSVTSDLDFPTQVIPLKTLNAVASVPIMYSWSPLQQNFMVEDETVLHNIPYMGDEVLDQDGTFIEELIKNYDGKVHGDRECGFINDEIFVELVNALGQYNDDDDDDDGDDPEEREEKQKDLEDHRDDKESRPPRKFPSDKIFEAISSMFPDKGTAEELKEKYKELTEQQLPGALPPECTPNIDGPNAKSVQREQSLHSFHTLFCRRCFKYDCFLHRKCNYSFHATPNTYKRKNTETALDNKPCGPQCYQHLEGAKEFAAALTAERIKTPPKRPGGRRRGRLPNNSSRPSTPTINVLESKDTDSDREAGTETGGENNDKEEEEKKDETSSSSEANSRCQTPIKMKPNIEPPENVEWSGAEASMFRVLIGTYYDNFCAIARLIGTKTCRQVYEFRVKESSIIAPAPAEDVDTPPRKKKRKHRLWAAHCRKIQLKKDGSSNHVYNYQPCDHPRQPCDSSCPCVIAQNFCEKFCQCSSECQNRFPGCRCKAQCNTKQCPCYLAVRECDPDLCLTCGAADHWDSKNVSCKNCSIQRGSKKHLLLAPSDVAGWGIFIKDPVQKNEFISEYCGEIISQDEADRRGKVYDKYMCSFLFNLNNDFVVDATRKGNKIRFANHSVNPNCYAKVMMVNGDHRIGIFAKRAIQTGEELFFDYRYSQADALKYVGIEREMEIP
EZH2, sequence (O75530 whole entry partner): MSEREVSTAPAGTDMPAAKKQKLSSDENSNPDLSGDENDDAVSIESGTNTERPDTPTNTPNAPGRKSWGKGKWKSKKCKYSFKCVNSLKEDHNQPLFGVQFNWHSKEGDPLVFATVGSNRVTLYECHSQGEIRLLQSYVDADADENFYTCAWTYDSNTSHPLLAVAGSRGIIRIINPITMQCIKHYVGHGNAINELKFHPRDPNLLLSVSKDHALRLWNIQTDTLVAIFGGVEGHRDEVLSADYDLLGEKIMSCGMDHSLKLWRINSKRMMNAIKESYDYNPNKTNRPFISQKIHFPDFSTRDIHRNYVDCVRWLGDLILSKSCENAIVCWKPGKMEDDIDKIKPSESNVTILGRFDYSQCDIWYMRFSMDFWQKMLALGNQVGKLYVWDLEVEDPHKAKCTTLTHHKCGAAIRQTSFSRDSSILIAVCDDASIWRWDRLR
EZH2, sequence (Q15022 whole entry partner): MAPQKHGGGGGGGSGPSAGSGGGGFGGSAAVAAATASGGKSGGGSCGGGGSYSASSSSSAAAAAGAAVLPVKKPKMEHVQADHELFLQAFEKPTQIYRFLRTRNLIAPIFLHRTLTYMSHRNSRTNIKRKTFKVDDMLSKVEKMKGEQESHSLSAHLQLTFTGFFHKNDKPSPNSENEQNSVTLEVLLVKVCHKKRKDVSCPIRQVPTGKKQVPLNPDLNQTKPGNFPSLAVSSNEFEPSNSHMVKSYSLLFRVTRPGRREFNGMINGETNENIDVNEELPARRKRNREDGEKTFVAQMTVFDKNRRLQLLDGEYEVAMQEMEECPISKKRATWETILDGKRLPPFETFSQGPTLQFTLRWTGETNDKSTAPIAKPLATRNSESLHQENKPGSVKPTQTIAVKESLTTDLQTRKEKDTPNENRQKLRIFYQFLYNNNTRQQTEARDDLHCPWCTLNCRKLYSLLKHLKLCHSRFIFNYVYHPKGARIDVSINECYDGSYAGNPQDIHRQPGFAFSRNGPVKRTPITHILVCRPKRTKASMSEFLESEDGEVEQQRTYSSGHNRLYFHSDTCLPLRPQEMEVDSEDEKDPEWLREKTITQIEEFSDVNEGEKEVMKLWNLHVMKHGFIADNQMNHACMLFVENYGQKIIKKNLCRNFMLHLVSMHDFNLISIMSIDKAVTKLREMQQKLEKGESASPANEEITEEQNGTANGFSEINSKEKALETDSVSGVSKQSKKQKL
EZH2, sequence (Q09028 whole entry partner): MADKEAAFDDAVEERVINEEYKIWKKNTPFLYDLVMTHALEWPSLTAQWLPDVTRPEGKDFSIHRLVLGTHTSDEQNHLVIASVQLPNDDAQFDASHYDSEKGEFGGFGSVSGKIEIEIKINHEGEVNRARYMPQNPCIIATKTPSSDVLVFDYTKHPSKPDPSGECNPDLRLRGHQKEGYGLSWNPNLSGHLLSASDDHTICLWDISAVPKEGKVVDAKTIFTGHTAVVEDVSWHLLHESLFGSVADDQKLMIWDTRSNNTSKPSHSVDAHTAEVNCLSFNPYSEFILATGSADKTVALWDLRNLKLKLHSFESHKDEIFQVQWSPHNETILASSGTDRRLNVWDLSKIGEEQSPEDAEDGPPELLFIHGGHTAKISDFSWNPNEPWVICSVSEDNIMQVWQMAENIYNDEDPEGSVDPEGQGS
One may read the IC50 as the point on the concentration scale where inhibition reaches its midpoint. Consider `Cc1cc(C)c(CNC(=O)c2cc(C3CCN(CCN)CC3)cc3c2cnn3C2CCCC2)c(=O)[nH]1` [Compound D-96], for which the IC50 was below 0.3 µM.

Take `Cc1cc(C)c(CNC(=O)c2cc(C3CCN(CCO)CC3)cc3c2cnn3C2CCCC2)c(=O)[nH]1` [Compound D-97]: the IC50 is below 0.3 µM.

Consider `Cc1cc(C)c(CNC(=O)c2cc(Br)cc3c2cnn3C2CCN(C(=O)C3CCC3)CC2)c(=O)[nH]1` [Compound D-98], for which the half-inhibitory concentration (IC50) is 0.3 to 1 µM.

`Cc1cc(C)c(CNC(=O)c2cccc3c2ccn3C(C)C)c(=O)[nH]1` [Compound E-1]: the IC50 lay in the range of 1 to 3 µM.

On to `Cc1cc(C)c(CNC(=O)c2cc(-c3ccc(CN4CCOCC4)cc3)cc3c2ccn3C2CCCC2)c(=O)[nH]1` [Compound E-2], for which the IC50 was below 0.3 µM.

Regarding `Cc1cc(C)c(CNC(=O)c2ccnc3c2ccn3C(C)C)c(=O)[nH]1` [Compound F-1], the IC50 was in the range of 3 to 10 µM.
